Experimental data taken from ChEMBL document CHEMBL1201862, “PubChem BioAssay data set” (2004).
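96-well plates; 48 h exposure; 5 concentrations. Endpoints by linear interpolation between flanking doses. Not reached: highest tested concentration assigned. The concentration for 50% growth inhibition is given as GI50.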 The source made the active and inactive calls. No stated cut-off is given here; in the data, active = GI50 up to about 1.1 µM and inactive = higher.

What was measured:
Assay in all cases: NCI anticancer screen, dose series, 48 h
ACHN = system: ACHN
BT-549 = system: BT-549
EKVX = system: EKVX
HCT-15 = system: HCT-15
HT-29 = system: HT-29
IGROV-1 = system: IGROV-1
KM12 = system: KM12
M14 = system: M14
MCF7 = system: MCF7
MDA-MB-231 = system: MDA-MB-231
MDA-MB-435 = system: MDA-MB-435
NCI-H226 = system: NCI-H226
PC-3 = system: PC-3
RPMI-8226 = system: RPMI-8226
SK-MEL-2 = system: SK-MEL-2
SNB-19 = system: SNB-19
SNB-75 = system: SNB-75
COLO 205 = system: COLO 205
T47D = system: T47D
UACC-257 = system: UACC-257

Structure (SMILES) | GI50 (ACHN) | GI50 (BT-549) | GI50 (EKVX) | GI50 (HCT-15) [µM] | GI50 (HT-29) | GI50 (IGROV-1) | GI50 (KM12) | GI50 (M14) | GI50 (MCF7) | GI50 (MDA-MB-231) | GI50 (MDA-MB-435) | GI50 (NCI-H226) | GI50 (PC-3) | GI50 (RPMI-8226) | GI50 (SK-MEL-2) | GI50 (SNB-19) | GI50 (SNB-75) | GI50 (COLO 205) | GI50 (T47D) | GI50 (UACC-257)
Nc1nc(N)c2nc(CNc3ccc(C(=O)NC(CCNC(=O)c4ccccc4C(=O)O)C(=O)O)cc3)cnc2n1 (centres undefined) | 0.01 µM (active) | > 100 µM (inactive) | > 100 µM (inactive) | 0.01 | 0.01 µM (active) | < 0.0212 µM (active) | 0.0168 µM (active) | 0.01 µM (active) | 0.01 µM (active) | > 100 µM (inactive) | 0.01 µM (active) | > 100 µM (inactive) | 0.01 µM (active) | 0.083 µM (active) | > 100 µM (inactive) | < 0.0434 µM (active) |  |  |  | 
O=C1CCCC2=C1CC1=C(CCCC1=O)N2c1ccccc1 | > 100 µM (inactive) | > 100 µM (inactive) | > 100 µM (inactive) | > 100 | > 100 µM (inactive) | > 100 µM (inactive) | > 100 µM (inactive) | > 100 µM (inactive) | > 100 µM (inactive) |  |  | > 100 µM (inactive) | > 100 µM (inactive) | > 100 µM (inactive) |  | > 100 µM (inactive) | > 100 µM (inactive) |  |  | 
COc1ccc(/C(Br)=C2\OC(=O)c3ccccc32)cc1 | > 10 µM (inactive) |  | > 10 µM (inactive) | > 10 | > 10 µM (inactive) | > 10 µM (inactive) | > 10 µM (inactive) | > 10 µM (inactive) | > 10 µM (inactive) | > 10 µM (inactive) | > 10 µM (inactive) | > 10 µM (inactive) | > 10 µM (inactive) | > 10 µM (inactive) | > 10 µM (inactive) | > 10 µM (inactive) | > 10 µM (inactive) | > 10 µM (inactive) | > 10 µM (inactive) | > 10 µM (inactive)
CSc1nc(C)cc(Nc2ccc(O)c(CN3CCCCC3)c2)n1 | 83 µM (inactive) | > 100 µM (inactive) | 27.5 µM (inactive) | 86.3 | 20.4 µM (inactive) | 60.5 µM (inactive) | > 100 µM (inactive) | 16.3 µM (inactive) | 67.6 µM (inactive) |  | 57.5 µM (inactive) | 32.4 µM (inactive) |  | 23.3 µM (inactive) |  | > 100 µM (inactive) | > 100 µM (inactive) | 29 µM (inactive) | 68.1 µM (inactive) | 
Nn1c(CCCCCCCCc2nnc(COc3ccc(Cl)cc3Cl)n2N)nnc1COc1ccc(Cl)cc1Cl | 44.9 µM (inactive) | 35.9 µM (inactive) | 38.3 µM (inactive) | 37.7 | 29.1 µM (inactive) | 6.43 µM (inactive) | 40 µM (inactive) | 49.3 µM (inactive) | 34.9 µM (inactive) | 52.4 µM (inactive) | 48.3 µM (inactive) | 63.5 µM (inactive) | 31 µM (inactive) | 21.6 µM (inactive) | 42 µM (inactive) | 30.9 µM (inactive) | > 10 µM (inactive) | 25.8 µM (inactive) |  | 61.5 µM (inactive)
Cc1ccc(-n2cc(-c3ccc(Cl)cc3)c3c2N=CN2N=C(c4ccco4)NC32)cc1 (centres undefined) | 4.24 µM (inactive) | 26.2 µM (inactive) | 17.7 µM (inactive) | > 100 | > 100 µM (inactive) | 7.62 µM (inactive) |  | 28.8 µM (inactive) | 23.7 µM (inactive) | 5 µM (inactive) | 30.8 µM (inactive) | 11.2 µM (inactive) | 12.8 µM (inactive) |  | 10 µM (inactive) | 14.3 µM (inactive) | 4.75 µM (inactive) | 9.18 µM (inactive) |  | > 100 µM (inactive)
Nc1ccc(C(=O)Nc2ccccc2N)cc1 [DINALINE] | 31.7 µM (inactive) | 67.6 µM (inactive) | 66.2 µM (inactive) | 54 | 25.9 µM (inactive) | 31.1 µM (inactive) | 44.5 µM (inactive) | 65.2 µM (inactive) | 20.9 µM (inactive) | 30.3 µM (inactive) | 20.4 µM (inactive) | > 78.5 µM (inactive) | 31.5 µM (inactive) | 5.68 µM (inactive) | 23.3 µM (inactive) | > 100 µM (inactive) | > 36.3 µM (inactive) | 17.6 µM (inactive) |  | 17.7 µM (inactive)
CC(=O)c1ccc2c(c1)C(=O)c1sc(C(C)=O)cc1C2=O | 0.736 µM (active) |  | 1.18 µM (inactive) | 0.918 | 1.2 µM (inactive) | 1.07 µM (active) | 1.01 µM (active) | 0.91 µM (active) | 1.37 µM (inactive) | 1.23 µM (inactive) | 1.18 µM (inactive) | 1.04 µM (active) | 1.82 µM (inactive) | 1.74 µM (inactive) | 1.47 µM (inactive) | 0.748 µM (active) | 1.67 µM (inactive) | 1.69 µM (inactive) | 1.32 µM (inactive) | 0.859 µM (active)
